# Laboratory results from article PMC4026528 (PLoS ONE, 2014).
# How the values were obtained:
# [1] = test system: Myc transcriptional activation in HEK293 cells; experiment: Nucleolin promoter (pNucL14) luciferase reporter, HEK293; format: cell-based; details: HEK293, pNucL14 ± FLAG-c-Myc
# Source text: (§1) The generation of TCF-Luciferase and TA-Renilla reporter plasmids as well as IC50 determination and calculation was reported previously. Human AXIN1 and WNT3A cDNAs were purchased from Origene as “transfection ready” plasmids. Dominant negative TCF4 cDNA was purchased from Upstate. Luciferase reporter of the nucleolin promoter (pNucL14) and FLAG-c-Myc expressing vector were from B. Amati. Luciferase reporter of the Hes5 promoter and Notch1-IC expressing vector were from I. Screpanti. Lentiviral vectors for inducible dominant negative TCF4 (rLV-EF1-tTS, rLV-EF1-rtTA and rLV-TRE-CMV-HA-TCF4DN) were purchased from Vectalys.
# (§2) Transfections were carried out using Lipofectamine 2000 (Invitrogen) according to the manufacturer’s instructions. Lentiviral expression of TCF-Luc, TA-Renilla, and the inducible dominant negative TCF4, were carried out following Vectalys instructions. For reporter assays, luciferase activities were performed as described previously.
# [2] = test system: human mRNA in HT-1080 xenograft tumors; experiment: Gene expression (qPCR) in HT-1080 xenograft tumors; format: in vivo, female Crl:CD-1 nude mice
# Description: RNA extraction and quantitative RT-PCR (qPCR) expression analysis was performed as described previously. Gene expression analysis was performed using the human housekeeping gene RPL13A. Primers for the hAXIN2, hCDC25A, hc-MYC, hFZD4, hDVL2, hCSNK1G and hVEGF-A were the following: [NT] Rv: [NT] Rv: [NT] Rv: [NT] Rv: [NT] Rv: [NT] Rv: [NT] Rv: [NT]. Female athymic nude mice (6 weeks old, Crl:CD-1 nude mice) were obtained from Charles River Italia (Calco, Italy). HT-1080 cells (6×10^∧6 cells) were resuspended in 200 μl of PBS 1X and injected subcutaneously in the right flank of the mice. Body weight and tumor measurements (using a digital caliper) were performed twice a week. […] SEN461 was formulated in 0.5% w/v Methocel in MilliQ water and administered PO by oral gavage twice a day at 30 mg/kg for seven consecutive days in a total of 15 animals (n = 5 for each time point). Control animals (n = 5) were administered with the vehicle for the same time period. On treatment day 19, the mice were euthanized under inhalant anesthesia with isoflurane and tumor and blood samples were collected at three different time points (1-4-8 h, n = 5 animals for each time point) after last treatment and subjected to gene expression analysis and compound quantification. All mice were maintained in a conventional-specific-pathogen-free facility according to the NIH guidelines using an approved Animal Care and Use Committee protocol. During all the experimental time period, mice were housed (5 animals/cage) in individually ventilated solid floor plastic cages (Sealsafe Plus GR500, Tecniplast-Gazzada (VA) - Italy) using as bedding the Sawdust SCOBIS UNO by […] (via Galileo […] Milanese, Milano, Italy). Cages were maintained at a temperature of 20-24°C and humidity of 40-70% (Siemens Desigo Apparatus ver. 4.1) with 70 air changes/hour in the cage (10-15 air changes/hour in the room). Animals were subjected to a 12-hour light/12-hour dark cycle and have free access to a standard pelleted commercial laboratory diet (Certified Rodent irradiated 4RF21- Mucedola, Italy) and to municipal tap water, purified by reverse osmosis and autoclaved. The study was conducted in compliance with Decreto Legislativo January 27, 1992, N. 116, Gazzetta Ufficiale N. 40 February 18, 1992, (Directive N. […]) concerning protection of animals used for scientific purposes. The project was authorized by the Italian Institute of Health (48/2009/B). The experimental protocol was […] approved by the Internal Ethical Committee.
# HT-1080 cells = experiment: Tube formation assay, HT-1080; format: cell-based, human; details: HT-1080, 24 hours exposure, vs DMSO
# Description: Soft agar assay and analysis was carried out as previously described. For scratch assay, confluent monolayer of U2OS and HT-1080 cells were subjected to scratch using a sterile pipette tip. Wounded monolayers were washed to remove debris and incubated with SEN461 at different concentrations for 20 hours. After the incubation period, images were taken under an Axiovert 200M (Zeiss) microscope equipped with a CCD camera, and the gap width was measured using MetaMorph 6.3 software (Universal Imaging Corp.) to calculate the area covered by cells (pixels unit). The tube formation assay was performed using growth factor-reduced Matrigel from BD (BD Biosciences; San Jose, CA, USA). Matrigel was thawed overnight at 4°C and was diluted (1∶1) with phenol red-free DMEM without serum. 100 µl of the diluted matrigel was used to coat the wells of a 96 well plate and was allowed to polymerize for 2 hours at 37°C. […] The tube formation was monitored under a phase contrast microscope (Axiovert 200, Zeiss) and imaged using MetaMorph system (Universal Imaging Corp).
# [3] = test system: Wnt transcriptional activity in DLD1 colorectal cancer cells; experiment: TCF-Luciferase/TA-Renilla Wnt reporter assay in DLD1; format: cell-based; details: DLD1, transiently transfected
# Source text: as §1, §2
# [4] = test system: Wnt transcriptional activity in HT-1080 cells; experiment: TCF Wnt reporter assay in HT-1080; format: cell-based, human; details: HT-1080, data not shown
# Source text: as §1, §2
# [5] = 30 mg/kg BID PO 7 days, data not shown
smiles,measurement,setting,value
COCC(=O)N1CCN(C(=O)C2CCC(Cn3c(=O)c4cc(OC)ccc4n(C)c3=O)CC2)CC1 (centres unmarked) [SEN461],Myc mediated activation / basal activity of nucleolin reporter,[1],did not affect
same,AXIN2 mRNA in HT-1080 xenograft tumors,[2]; [5],without any significant effect
same,CDC25A mRNA in HT-1080 xenograft tumors,[2]; [5],without any significant effect
same,c-MYC mRNA in HT-1080 xenograft tumors,"[2]; 30 mg/kg BID PO 7 days, 1, 4, 8 h, vs control animals",down-modulation of c-MYC
same,VEGF-A mRNA in HT-1080 xenograft tumors,"[2]; 30 mg/kg BID PO, 1 h, treated versus control",did not show any difference
same,tubule-formation activity,HT-1080 cells,did not produce any change
same,Wnt transcriptional activity (TCF-Luciferase/TA-Renilla),[3],Concentration dependent inhibition of Wnt transcriptional activity
same,Wnt transcriptional modulation (TCF reporter),[4],did not find any Wnt transcriptional modulation
